Measured values: the NIST ThermoML archive (doi:10.1016/j.fluid.2005.08.011)
± gives the expanded uncertainty stated by the source.

Conditions: Gas, isochoric method

CCF [fluoroethane]
Conditions | mass density [kg/m3]
300.16 K, 642.2 kPa | 13.92 ± 0.088
305.16 K, 656.6 kPa | 13.917 ± 0.088
310.14 K, 670.4 kPa | 13.913 ± 0.088
312.16 K, 1205.6 kPa | 27.61 ± 0.11
314.16 K, 1218.3 kPa | 27.607 ± 0.11
315.15 K, 684.8 kPa | 13.91 ± 0.087
316.15 K, 1231.8 kPa | 27.605 ± 0.11
318.15 K, 1244.1 kPa | 27.602 ± 0.11
320.14 K, 698.5 kPa | 13.906 ± 0.086
322.16 K, 1268.7 kPa | 27.596 ± 0.11
324.15 K, 1614.6 kPa | 37.54 ± 0.14
325.14 K, 712.3 kPa | 13.903 ± 0.082
326.14 K, 1634.4 kPa | 37.536 ± 0.14
326.16 K, 1293.4 kPa | 27.591 ± 0.11
328.15 K, 1652.5 kPa | 37.533 ± 0.14
330.15 K, 1670.2 kPa | 37.529 ± 0.14
330.16 K, 726.1 kPa | 13.899 ± 0.081
330.16 K, 1317.6 kPa | 27.585 ± 0.11
332.15 K, 2022.6 kPa | 48.84 ± 0.18
334.16 K, 1341.9 kPa | 27.58 ± 0.11
334.16 K, 1704.9 kPa | 37.521 ± 0.14
334.16 K, 2047.7 kPa | 48.835 ± 0.18
335.15 K, 739.5 kPa | 13.896 ± 0.08
336.16 K, 2072.5 kPa | 48.83 ± 0.17
338.12 K, 2287.8 kPa | 56.23 ± 0.2
338.16 K, 1739 kPa | 37.514 ± 0.14
338.17 K, 1365.6 kPa | 27.574 ± 0.11
338.2 K, 2096.6 kPa | 48.825 ± 0.18
339.16 K, 2108.2 kPa | 48.823 ± 0.18
340.12 K, 2318.8 kPa | 56.224 ± 0.2
340.15 K, 752.5 kPa | 13.892 ± 0.078
340.15 K, 2419 kPa | 60.32 ± 0.22
340.16 K, 2120.6 kPa | 48.821 ± 0.18
342.12 K, 2347.8 kPa | 56.219 ± 0.2
342.16 K, 1388.9 kPa | 27.569 ± 0.11
342.16 K, 2144.2 kPa | 48.816 ± 0.18
342.16 K, 2450.7 kPa | 60.314 ± 0.22
342.17 K, 1773.5 kPa | 37.506 ± 0.14
344.12 K, 2376.7 kPa | 56.213 ± 0.2
344.16 K, 2167.5 kPa | 48.811 ± 0.17
344.16 K, 2482.2 kPa | 60.308 ± 0.22
346.12 K, 2404.5 kPa | 56.208 ± 0.2
346.14 K, 2707.5 kPa | 68.66 ± 0.24
346.15 K, 768.9 kPa | 13.888 ± 0.076
346.15 K, 1412.4 kPa | 27.563 ± 0.11
346.15 K, 2513.1 kPa | 60.302 ± 0.22
346.16 K, 1806.7 kPa | 37.499 ± 0.14
346.16 K, 2190.7 kPa | 48.806 ± 0.17
347.15 K, 2725.9 kPa | 68.657 ± 0.24
348.13 K, 2432.7 kPa | 56.202 ± 0.2
348.15 K, 2743.8 kPa | 68.653 ± 0.24
348.16 K, 2214 kPa | 48.801 ± 0.17
348.16 K, 2543 kPa | 60.296 ± 0.22
350.15 K, 1435.8 kPa | 27.558 ± 0.11
350.15 K, 2460.5 kPa | 56.196 ± 0.2
350.15 K, 2779.8 kPa | 68.646 ± 0.25
350.16 K, 1840.5 kPa | 37.491 ± 0.14
350.16 K, 2237.2 kPa | 48.796 ± 0.17
350.16 K, 2573.4 kPa | 60.29 ± 0.22
350.16 K, 2978.2 kPa | 78.21 ± 0.28
351.16 K, 2999.9 kPa | 78.206 ± 0.27
352.15 K, 2488.2 kPa | 56.191 ± 0.2
352.15 K, 2815 kPa | 68.639 ± 0.24
352.16 K, 2260.1 kPa | 48.791 ± 0.17
352.16 K, 2603.3 kPa | 60.284 ± 0.21
352.17 K, 3021.2 kPa | 78.202 ± 0.27
353.14 K, 3180.2 kPa | 85.66 ± 0.3
353.16 K, 3042.3 kPa | 78.198 ± 0.27
354.15 K, 3204.5 kPa | 85.656 ± 0.3
354.16 K, 790.7 kPa | 13.883 ± 0.074
354.16 K, 1458.8 kPa | 27.552 ± 0.1
354.16 K, 1873.7 kPa | 37.484 ± 0.14
354.16 K, 2283 kPa | 48.787 ± 0.17
354.16 K, 2515.3 kPa | 56.185 ± 0.2
354.16 K, 2633.4 kPa | 60.278 ± 0.21
354.16 K, 2850.7 kPa | 68.633 ± 0.24
354.17 K, 3062.9 kPa | 78.194 ± 0.28
355.15 K, 3227.8 kPa | 85.651 ± 0.3
356.14 K, 2542.3 kPa | 56.18 ± 0.2
356.15 K, 2663.1 kPa | 60.272 ± 0.21
356.15 K, 2885.7 kPa | 68.626 ± 0.24
356.16 K, 2305.7 kPa | 48.782 ± 0.17
356.16 K, 3104.4 kPa | 78.187 ± 0.27
356.26 K, 3251.2 kPa | 85.647 ± 0.3
357.26 K, 3274.8 kPa | 85.642 ± 0.3
358.15 K, 1481.8 kPa | 27.547 ± 0.11
358.15 K, 1906.7 kPa | 37.477 ± 0.14
358.15 K, 2569.2 kPa | 56.174 ± 0.19
358.15 K, 2920 kPa | 68.619 ± 0.24
358.15 K, 3297.7 kPa | 85.639 ± 0.31
358.16 K, 2328.4 kPa | 48.777 ± 0.17
358.16 K, 2692.5 kPa | 60.266 ± 0.21
358.16 K, 3145.7 kPa | 78.179 ± 0.27
358.16 K, 3506.4 kPa | 97.915 ± 0.34
359.16 K, 3534.2 kPa | 97.91 ± 0.34
360.15 K, 2595.9 kPa | 56.168 ± 0.19
360.15 K, 2954.3 kPa | 68.612 ± 0.24
360.16 K, 2721.3 kPa | 60.26 ± 0.21
360.16 K, 3186 kPa | 78.171 ± 0.27
360.16 K, 3343.9 kPa | 85.63 ± 0.3
360.16 K, 3562.2 kPa | 97.905 ± 0.34
360.17 K, 2350.8 kPa | 48.772 ± 0.17
360.17 K, 3660.7 kPa | 104.59 ± 0.38
361.15 K, 3589.9 kPa | 97.9 ± 0.33
361.16 K, 3691 kPa | 104.585 ± 0.37
362.14 K, 2622.7 kPa | 56.163 ± 0.19
362.15 K, 811.8 kPa | 13.877 ± 0.072
362.15 K, 2988.3 kPa | 68.605 ± 0.23
362.15 K, 3226.2 kPa | 78.163 ± 0.27
362.15 K, 3389.2 kPa | 85.622 ± 0.3
362.15 K, 3617 kPa | 97.896 ± 0.34
362.16 K, 1505 kPa | 27.541 ± 0.1
362.16 K, 1939.6 kPa | 37.469 ± 0.14
362.16 K, 3721.4 kPa | 104.58 ± 0.37
362.17 K, 2373 kPa | 48.767 ± 0.17
362.17 K, 2750.9 kPa | 60.254 ± 0.21
363.15 K, 3644.5 kPa | 97.891 ± 0.33
363.16 K, 3751.4 kPa | 104.574 ± 0.37
364.15 K, 2649.2 kPa | 56.157 ± 0.19
364.15 K, 3023 kPa | 68.598 ± 0.23
364.15 K, 3434.4 kPa | 85.613 ± 0.3
364.15 K, 3780.8 kPa | 104.569 ± 0.36
364.16 K, 2394.9 kPa | 48.762 ± 0.17
364.16 K, 3266.5 kPa | 78.156 ± 0.27
364.16 K, 3671.6 kPa | 97.886 ± 0.34
364.17 K, 2779.6 kPa | 60.248 ± 0.21
365.16 K, 3698.9 kPa | 97.881 ± 0.33
365.16 K, 3810.4 kPa | 104.564 ± 0.36
366.14 K, 1527.7 kPa | 27.536 ± 0.11
366.14 K, 2675.7 kPa | 56.152 ± 0.19
366.15 K, 1971.5 kPa | 37.462 ± 0.13
366.15 K, 3056.7 kPa | 68.592 ± 0.23
366.15 K, 3306.2 kPa | 78.148 ± 0.26
366.15 K, 3478.5 kPa | 85.605 ± 0.29
366.15 K, 3725.2 kPa | 97.876 ± 0.33
366.15 K, 3839.8 kPa | 104.559 ± 0.36
366.16 K, 2417.4 kPa | 48.757 ± 0.17
366.16 K, 2808.4 kPa | 60.242 ± 0.21
367.15 K, 3751.8 kPa | 97.871 ± 0.33
367.15 K, 3869 kPa | 104.554 ± 0.36
368.14 K, 2702 kPa | 56.146 ± 0.19
368.14 K, 3090.7 kPa | 68.585 ± 0.23
368.15 K, 3346 kPa | 78.14 ± 0.26
368.15 K, 3523.3 kPa | 85.596 ± 0.29
368.15 K, 3898.1 kPa | 104.548 ± 0.36
368.16 K, 2439.4 kPa | 48.753 ± 0.16
368.16 K, 2837.3 kPa | 60.236 ± 0.2
368.16 K, 3778.8 kPa | 97.866 ± 0.33
369.14 K, 3805.1 kPa | 97.861 ± 0.33
369.15 K, 3927.3 kPa | 104.543 ± 0.36
370.12 K, 1550.1 kPa | 27.531 ± 0.1
370.13 K, 3123.8 kPa | 68.578 ± 0.23
370.14 K, 2728 kPa | 56.14 ± 0.19
370.14 K, 3568 kPa | 85.588 ± 0.29
370.14 K, 3831.8 kPa | 97.857 ± 0.33
370.15 K, 833.2 kPa | 13.872 ± 0.071
370.15 K, 2461.8 kPa | 48.748 ± 0.17
370.15 K, 3385.9 kPa | 78.132 ± 0.26
370.15 K, 3956.2 kPa | 104.538 ± 0.35
370.16 K, 2004 kPa | 37.454 ± 0.13
370.16 K, 2865.8 kPa | 60.23 ± 0.2
